The record followed here is ChEMBL document CHEMBL1124529, “Sodium channel binding and anticonvulsant activities for the enantiomers of a bicyclic 2,4-oxazolidinedione and monocyclic models” (J Med Chem, 1989).

Each structure is given as a SMILES string.

Series [1] has as its system Mus musculus. Put plainly: Anticonvulsant activity of the compound, 0.5 hr after administration in maximal electroshock mice model. The format is functional. For orientation: Protection in the maximal electroshock model is a classic sign of anticonvulsant action.
Series [2] concerns Mus musculus. Description: Anticonvulsant activity of the compound, 0.5 hr after administration of compound in mice subjected to subcutaneous metrazole challenge (85 mg/kg). As to conditions: sc. The format is functional.
A short description of series [3]: Anticonvulsant activity of the compound,0.5 hr after administration in mice subjected to rotarod toxicity test. To be noted: mouse, in vivo. It counts as organism-based.
The target in series [4] is T1, Sodium channel alpha subunits; brain (Types I, II, III) (Rattus norvegicus) (UniProt P04775+P04774+P08104). Description: Displacement of [3H]BTX-B from rat cerebral cortex voltage-gated sodium channel, 0.5 hr after 500 uM. It counts as tissue-based.
For series [5], the target named is T1, Sodium channel alpha subunits; brain (Types I, II, III) (Rattus norvegicus). Put plainly: Displacement of [3H]BTX-B from rat cerebral cortex voltage-gated sodium channel, 0.5 hr after 190 uM. It counts as tissue-based. (In a radioligand displacement assay an active substance lowers the binding of a labelled ligand.)
Series [6] shares this target. Description: Displacement of [3H]BTX-B from rat cerebral cortex voltage-gated sodium channel, 0.25 hr after 160 uM. It counts as tissue-based.
A short description of series [7]: Anticonvulsant activity of the compound,0.25 h after administration in mice subjected to rotarod toxicity test. It counts as organism-based. As to conditions: mouse, in vivo. Background: In the rotarod test animals must keep their balance on a rotating rod.
The species named for series [8] is Mus musculus. Put plainly: Anticonvulsant activity when mice were subjected to maximal electroshock. The format is functional.

T1 sequence (P04775 whole entry, looked up, other chains not shown): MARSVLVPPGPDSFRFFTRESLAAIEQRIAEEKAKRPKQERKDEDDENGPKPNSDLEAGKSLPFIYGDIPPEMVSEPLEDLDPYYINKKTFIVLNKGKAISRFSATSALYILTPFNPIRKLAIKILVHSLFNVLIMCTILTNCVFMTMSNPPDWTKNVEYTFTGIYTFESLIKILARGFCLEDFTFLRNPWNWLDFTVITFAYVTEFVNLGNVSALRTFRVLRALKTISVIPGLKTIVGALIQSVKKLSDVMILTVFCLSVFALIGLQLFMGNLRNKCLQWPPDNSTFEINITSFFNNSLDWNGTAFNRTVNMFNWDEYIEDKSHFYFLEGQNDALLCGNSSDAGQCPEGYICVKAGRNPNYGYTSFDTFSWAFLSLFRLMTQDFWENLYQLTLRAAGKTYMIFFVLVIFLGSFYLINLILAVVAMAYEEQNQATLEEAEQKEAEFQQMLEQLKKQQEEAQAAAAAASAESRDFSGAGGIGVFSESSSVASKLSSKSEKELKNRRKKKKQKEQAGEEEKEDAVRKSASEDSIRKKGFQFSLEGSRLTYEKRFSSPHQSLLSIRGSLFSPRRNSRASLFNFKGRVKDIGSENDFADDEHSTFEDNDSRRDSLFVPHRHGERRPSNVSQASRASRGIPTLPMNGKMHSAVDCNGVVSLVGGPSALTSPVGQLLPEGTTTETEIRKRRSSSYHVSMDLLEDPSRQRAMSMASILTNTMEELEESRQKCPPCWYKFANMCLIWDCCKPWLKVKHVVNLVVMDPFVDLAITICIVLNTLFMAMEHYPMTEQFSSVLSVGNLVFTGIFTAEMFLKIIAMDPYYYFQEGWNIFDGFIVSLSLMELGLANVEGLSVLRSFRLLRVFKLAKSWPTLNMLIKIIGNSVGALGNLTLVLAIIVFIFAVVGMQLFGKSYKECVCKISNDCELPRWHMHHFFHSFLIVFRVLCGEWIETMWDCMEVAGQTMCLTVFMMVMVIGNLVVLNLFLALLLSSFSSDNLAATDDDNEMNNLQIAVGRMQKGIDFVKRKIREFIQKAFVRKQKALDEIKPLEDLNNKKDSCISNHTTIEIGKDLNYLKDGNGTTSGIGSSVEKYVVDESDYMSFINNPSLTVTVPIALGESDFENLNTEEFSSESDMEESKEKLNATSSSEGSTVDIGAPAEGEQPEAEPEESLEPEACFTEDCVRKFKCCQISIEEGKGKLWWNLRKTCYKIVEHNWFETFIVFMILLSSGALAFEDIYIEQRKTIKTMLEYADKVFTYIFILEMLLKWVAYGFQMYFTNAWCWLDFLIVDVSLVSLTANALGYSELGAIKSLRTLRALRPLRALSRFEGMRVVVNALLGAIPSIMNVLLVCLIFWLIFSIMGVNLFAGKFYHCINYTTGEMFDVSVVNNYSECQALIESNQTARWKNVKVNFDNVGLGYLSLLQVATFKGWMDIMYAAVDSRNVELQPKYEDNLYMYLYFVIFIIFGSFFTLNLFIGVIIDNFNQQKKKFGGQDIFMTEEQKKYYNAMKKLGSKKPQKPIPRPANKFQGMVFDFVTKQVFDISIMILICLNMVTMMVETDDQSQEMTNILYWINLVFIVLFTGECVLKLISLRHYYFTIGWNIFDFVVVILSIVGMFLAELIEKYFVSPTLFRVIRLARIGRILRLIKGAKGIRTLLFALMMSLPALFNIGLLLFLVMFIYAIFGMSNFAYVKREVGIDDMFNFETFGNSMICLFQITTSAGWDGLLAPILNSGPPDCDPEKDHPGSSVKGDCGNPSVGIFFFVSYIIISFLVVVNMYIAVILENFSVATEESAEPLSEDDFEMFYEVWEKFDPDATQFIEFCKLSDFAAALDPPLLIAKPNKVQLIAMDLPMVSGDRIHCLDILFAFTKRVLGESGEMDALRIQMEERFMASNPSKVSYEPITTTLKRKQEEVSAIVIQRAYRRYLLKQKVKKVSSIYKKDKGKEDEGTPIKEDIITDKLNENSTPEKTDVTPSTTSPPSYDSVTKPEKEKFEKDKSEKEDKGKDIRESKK
T1 sequence (P08104 whole entry, looked up, other chains not shown): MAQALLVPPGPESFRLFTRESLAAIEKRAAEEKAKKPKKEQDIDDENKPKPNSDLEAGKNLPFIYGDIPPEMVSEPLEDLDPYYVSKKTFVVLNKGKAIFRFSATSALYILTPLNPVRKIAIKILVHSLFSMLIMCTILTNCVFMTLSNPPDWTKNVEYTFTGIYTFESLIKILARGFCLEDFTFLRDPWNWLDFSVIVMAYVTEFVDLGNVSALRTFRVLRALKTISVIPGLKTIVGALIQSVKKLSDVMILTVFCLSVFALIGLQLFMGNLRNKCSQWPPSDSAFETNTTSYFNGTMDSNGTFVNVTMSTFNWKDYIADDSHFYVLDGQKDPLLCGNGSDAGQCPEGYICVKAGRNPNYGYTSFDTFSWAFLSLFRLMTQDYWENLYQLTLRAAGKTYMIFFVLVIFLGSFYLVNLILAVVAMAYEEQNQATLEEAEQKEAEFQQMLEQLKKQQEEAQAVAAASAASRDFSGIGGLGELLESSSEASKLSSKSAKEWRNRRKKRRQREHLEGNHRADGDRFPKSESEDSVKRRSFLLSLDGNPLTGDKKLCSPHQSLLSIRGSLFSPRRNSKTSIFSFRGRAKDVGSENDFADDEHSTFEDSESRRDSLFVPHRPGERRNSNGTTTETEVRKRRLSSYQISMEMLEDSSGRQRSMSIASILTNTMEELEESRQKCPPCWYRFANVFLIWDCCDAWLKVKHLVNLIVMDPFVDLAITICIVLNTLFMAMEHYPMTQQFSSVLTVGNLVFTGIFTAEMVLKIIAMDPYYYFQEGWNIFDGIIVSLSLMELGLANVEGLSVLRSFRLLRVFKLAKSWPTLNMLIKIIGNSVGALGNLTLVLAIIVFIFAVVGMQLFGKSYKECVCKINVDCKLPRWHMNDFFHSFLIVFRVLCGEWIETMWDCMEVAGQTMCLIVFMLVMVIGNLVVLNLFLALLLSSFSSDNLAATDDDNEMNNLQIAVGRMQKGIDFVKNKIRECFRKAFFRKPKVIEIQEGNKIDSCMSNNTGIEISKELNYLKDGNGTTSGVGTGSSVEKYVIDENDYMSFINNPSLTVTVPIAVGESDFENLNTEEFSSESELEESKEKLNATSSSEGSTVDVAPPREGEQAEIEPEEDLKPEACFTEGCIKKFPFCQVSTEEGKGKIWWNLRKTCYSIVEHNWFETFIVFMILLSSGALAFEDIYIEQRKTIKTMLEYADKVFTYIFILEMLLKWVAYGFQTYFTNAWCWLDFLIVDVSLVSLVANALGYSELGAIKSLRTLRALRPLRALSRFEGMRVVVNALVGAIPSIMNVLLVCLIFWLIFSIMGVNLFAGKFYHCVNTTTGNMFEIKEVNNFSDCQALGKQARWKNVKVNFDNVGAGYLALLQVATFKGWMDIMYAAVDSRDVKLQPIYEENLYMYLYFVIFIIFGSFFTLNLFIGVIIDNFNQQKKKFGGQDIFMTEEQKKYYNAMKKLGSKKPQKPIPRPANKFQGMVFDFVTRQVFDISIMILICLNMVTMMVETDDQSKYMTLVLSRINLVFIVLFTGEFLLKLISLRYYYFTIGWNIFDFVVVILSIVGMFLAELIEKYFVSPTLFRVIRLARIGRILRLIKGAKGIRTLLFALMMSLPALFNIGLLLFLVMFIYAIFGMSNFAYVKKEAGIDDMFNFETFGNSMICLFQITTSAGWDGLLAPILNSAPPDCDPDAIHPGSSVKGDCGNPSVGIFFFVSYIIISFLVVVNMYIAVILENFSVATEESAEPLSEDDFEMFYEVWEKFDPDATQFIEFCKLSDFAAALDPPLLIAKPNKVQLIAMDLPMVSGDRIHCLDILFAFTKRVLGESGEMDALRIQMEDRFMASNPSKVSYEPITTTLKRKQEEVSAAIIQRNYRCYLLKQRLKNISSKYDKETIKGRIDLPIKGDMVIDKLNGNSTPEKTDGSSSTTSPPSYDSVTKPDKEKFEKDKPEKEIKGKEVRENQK

The ED50 is the dose that gives a 50% effect, or the effect in half of the subjects. A lower ED50 goes with an effect at a small dose. Usually TD50 stands for the dose at which the toxic effect under study appears in half of the subjects. A low value points to harm at a small dose. As a reminder, the inhibition is the drop in the measured response relative to a control, in per cent. Low values mean little suppression, high ones strong suppression. On to `CC[C@@]1(c2ccccc2)OC(=O)N(C)C1=O`, for which the ED50 in series [1] turned out to be 188 mg/kg; in series [2], 64 mg/kg. Moreover, the TD50 at 0.5 h in series [3] was determined as 395 mg/kg. In series [4], this compound showed an inhibition of 45%.
As for `O=C1O[C@@]2(c3ccccc3)CCCCCN1C2=O`, the ED50 in series [1] is 45 mg/kg; in series [2], 50 mg/kg. Moreover, the TD50 at 0.5 h in series [3] is 84 mg/kg. This compound also had an inhibition in series [5] of 50%.
Take `CC[C@]1(c2ccccc2)OC(=O)NC1=O`: the results for the ED50 in series [1] and in series [2] were 91 mg/kg and 108 mg/kg, respectively. In series [3], this compound gave a TD50 at 0.5 h of 172 mg/kg. In addition, in series [4], the inhibition was determined as 46%.
For the compound `O=C1OC2(c3ccccc3)CCCCCN1C2=O` (racemic), the ED50 in series [1] was found to be 66 mg/kg; in series [2] it was 45 mg/kg. In series [3], this compound registered a TD50 at 0.5 h of 147 mg/kg. Moreover, the inhibition in series [6] was found to be 50%.
For the compound `CC[C@]1(c2ccccc2)OC(=O)N(C)C1=O`, the median effective dose (ED50) was 122 mg/kg in series [1] and 69 mg/kg in series [2]. In addition, in series [3], the TD50 at 0.5 h amounted to 354 mg/kg. In series [4], this compound had an inhibition of 49%.
Consider `O=C1O[C@]2(c3ccccc3)CCCCCN1C2=O`, for which the ED50 in series [1] is 82 mg/kg; in series [2] it was below 400 mg/kg. Further, the TD50 at 0.25 h in series [7] turned out to be 334 mg/kg. The same compound displayed an inhibition in series [5] of 50%.
For the compound `CCC1(c2ccccc2)OC(=O)N(C)C1=O` (racemic), in series [1], the ED50 stood at 124 mg/kg. The same compound registered an inhibition in series [4] of 50%.
On to `CC(=O)N[C@H](C(=O)NCc1ccccc1)c1ccccc1`, for which, in series [8], the ED50 is above 300 mg/kg.
On to `CC(=O)N[C@@H](C(=O)NCc1ccccc1)c1ccccc1`, for which the 50% effective dose (ED50) in series [8] is 26 mg/kg.
As for `CC[C@@]1(c2ccccc2)OC(=O)NC1=O`, the ED50 in series [1] worked out at 141 mg/kg; in series [2], 42 mg/kg. This compound showed a TD50 at 0.5 h in series [3] of 155 mg/kg. In addition, the inhibition in series [4] was found to be 36%.
As to `CCC1(c2ccccc2)OC(=O)NC1=O` (racemic), the inhibition in series [4] was 44%.
